From article PMC10279640 (Nature Communications, 2023)
Square brackets hold non-standard residues; d marks the D form. Peptide text beside a SMILES is read from it. sY = N[C@@H](Cc1ccc(OS(=O)(=O)O)cc1)C(=O)O

How the values were obtained:
PvDBP-RII = PvDBP-RII (Plasmodium vivax, UniProt P22290, S353A/T257A/T422A); experiment: biochemical; format: binding
[1] = tested on: P. knowlesi PvDBP^OR/PkDBPβγ^KO; conditions: PvDBP-expressing P. knowlesi, at the concentrations tested
[2] = tested on: P. knowlesi wild-type A1-H.1

Compound	Kd (PvDBP-RII)	growth inhibition (in words) [1]	growth inhibition (in words) [2]
CC(=O)N[C@@H](CCC(N)=O)C(=O)N[C@@H](CC(C)C)C(=O)N[C@@H](CC(=O)O)C(=O)N[C@@H](Cc1ccccc1)C(=O)N[C@@H](CCC(=O)O)C(=O)N[C@@H](CC(=O)O)C(=O)N[C@H](C(=O)N[C@@H](Cc1c[nH]c2ccccc12)C(=O)N[C@@H](CC(N)=O)C(=O)N[C@@H](CO)C(=O)N[C@@H](CO)C(=O)N[C@@H](Cc1ccc(OS(=O)(=O)O)cc1)C(=O)NCC(=O)N[C@H](C(=O)N[C@@H](CC(N)=O)C(=O)N[C@@H](CC(=O)O)C(=O)N[C@@H](CO)C(=O)N[C@@H](Cc1ccccc1)C(=O)N1CCC[C@H]1C(=O)N[C@@H](CC(=O)O)C(=O)NCC(=O)N[C@@H](CC(=O)O)C(=O)N[C@@H](Cc1ccc(O)cc1)C(=O)N[C@@H](CC(=O)O)C(=O)N[C@@H](C)C(=O)N[C@@H](CC(N)=O)C(=O)N[C@@H](CC(C)C)C(=O)N[C@@H](CCC(=O)O)C(=O)N[C@@H](CC(C)C)C(N)=O)C(C)C)C(C)C [Y30-S] (Ac-QLDFEDVWNSS[sY]GVNDSFPDGDYDANLEL-NH2)	552 nM		
Ac-QLDFEDVWNSSYGVNDSFPDGDYDANLEL-NH2 [non-sulfated]		no growth inhibition observed	no inhibition observed
